Source: patent US9023821B2, “Use of MicroRNA for treating diseases associated with a dysfunction of the cilia in multiciliated epithelial cells” (Centre National de la Recherche Scientifique, priority 2009, dated 2015)

What was measured:
[1] = system: human airway epithelial cells (HAECs); assay: High-throughput sequencing (HTS) of miRNAs at four stages of differentiation of HAECs; conditions: for Modulation (ratio of the level of intensity of expression in log2 in two stages of differentiation) measured by high-throughput sequencing, D7 − D0 / Modulation (ratio of the level of intensity of expression in log2 in two stages of differentiation) measured by high-throughput sequencing, FC − D7 / Modulation (ratio of the level of intensity of expression in log2 in two stages of differentiation) measured by high-throughput sequencing, WD − D0 / Modulation (ratio of the level of intensity of expression in log2 in two stages of differentiation) measured by high-throughput sequencing, WD − FC / Level of intensity of expression in log2 measured by high-throughput sequencing, D0 / Level of intensity of expression in log2 measured by high-throughput sequencing, D7 / Level of intensity of expression in log2 measured by high-throughput sequencing, FC / Level of intensity of expression in log2 measured by high-throughput sequencing, WD: Table VI; for Modulation (ratio of the level of intensity of expression in log2 in two stages of differentiation), D7 − D0 / Modulation (ratio of the level of intensity of expression in log2 in two stages of differentiation), FC − D7 / Modulation (ratio of the level of intensity of expression in log2 in two stages of differentiation), WD − FC / Abundance (%), D0 / Abundance (%), D7 / Abundance (%), FC / Abundance (%), WD: HTS; for Abundance (%), D0: ALI-D0; for Abundance (%), D7: ALI-D7; for Abundance (%), FC: ALI-FC; for Abundance (%), WD: ALI-WD; for Level of intensity of expression in log2 At the differentiated stage (WD) measured in HTS: healthy human airway epithelial tissue; for Level of intensity of expression in log2 measured by high-throughput sequencing, D0: stage D0; for Level of intensity of expression in log2 measured by high-throughput sequencing, D7: stage D7; for Level of intensity of expression in log2 measured by high-throughput sequencing, FC: stage FC; for Level of intensity of expression in log2 At the differentiated stage (WD) measured in HTS / Level of intensity of expression in log2 measured by high-throughput sequencing, WD: stage WD
In short: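 Reads per 5p and 3p strand scaled to 10^6 sequences, then to percentage abundance; linear model plus empirical Bayes normalization. Retained miRNAs exceeded 1% of total in at least one condition, with |Log2 Ratio| below 0.5 and adjusted P-value below 0.05.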

[2] = system: human airway epithelial cells (HAECs); assay: Agilent miRNA chips, miRNA expression at four stages of differentiation of HAECs; conditions: for Modulation (ratio of the level of intensity of expression in log2 in two stages of differentiation) measured with the Agilent chips, D7 − D0 / Modulation (ratio of the level of intensity of expression in log2 in two stages of differentiation) measured with the Agilent chips, FC − D7 / Modulation (ratio of the level of intensity of expression in log2 in two stages of differentiation) measured with the Agilent chips, WD − D0 / Modulation (ratio of the level of intensity of expression in log2 in two stages of differentiation) measured with the Agilent chips, WD − FC / Level of intensity of expression in log2 measured with the Agilent chips, D0 / Level of intensity of expression in log2 measured with the Agilent chips, D7 / Level of intensity of expression in log2 measured with the Agilent chips, FC / Level of intensity of expression in log2 measured with the Agilent chips, WD: Table VI; for Modulation (ratio of the level of intensity of expression in log2 at two stages of differentiation), FC − D7 / Modulation (ratio of the level of intensity of expression in log2 at two stages of differentiation), WD − FC: Agilent miRNA chips, Table V; for Level of intensity of expression in log2 measured with the Agilent chips, D0: stage D0; for Level of intensity of expression in log2 measured with the Agilent chips, D7: stage D7; for Level of intensity of expression in log2 measured with the Agilent chips, FC: stage FC; for Level of intensity of expression in log2 measured with the Agilent chips, WD: stage WD
In short: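 RNA from the same patients' HAECs at four differentiation stages was labelled and hybridized with the Agilent miRNA labeling and hybridization kit. Chips were Human miRNA Microarray v2, with 866 human and 89 viral miRNAs (miRBase v12.0). Profiles were compared with high-throughput sequencing data.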

[3] = system: basal cells and pyramidal cells of the airway epithelium; assay: miRNA expression in sorted basal cells versus pyramidal cells (ciliated + secretory), HTS and Agilent chips; set-up: species or system human; conditions: for Modulation of expression of the miRNAs in pyramidal cells (323(−)) relative to basal cells 323(+): HTS and Agilent chips; for Intensity of the level of expression in log2 in pyramidal cells (323(−)): pyramidal cells (ciliated + secretory)
In short: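 Nasal polyp or concha epithelial cells from 3 donors were stained with CD151-PE and anti-tissue factor-FITC for 20 min at 4° C, with DAPI excluding damaged cells. CD151+/TF+ basal and CD151−/TF− ciliated/secretory cells were FACS-sorted; total RNA miRNA profiles came from Agilent chips or high-throughput sequencing.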

Substance | Modulation (ratio of the level of intensity of expression in log2 in two stages of differentiation) measured by high-throughput sequencing, D7 − D0 [1] [log2] | Modulation (ratio of the level of intensity of expression in log2 in two stages of differentiation) measured by high-throughput sequencing, FC − D7 [1] [log2] | Modulation (ratio of the level of intensity of expression in log2 in two stages of differentiation) measured by high-throughput sequencing, WD − D0 [1] [log2] | Modulation (ratio of the level of intensity of expression in log2 in two stages of differentiation) measured by high-throughput sequencing, WD − FC [1] [log2] | Level of intensity of expression in log2 At the differentiated stage (WD) measured in HTS [1] [log2] | Level of intensity of expression in log2 measured by high-throughput sequencing, D0 [1] [log2] | Level of intensity of expression in log2 measured by high-throughput sequencing, D7 [1] [log2] | Level of intensity of expression in log2 measured by high-throughput sequencing, FC [1] [log2] | Level of intensity of expression in log2 measured by high-throughput sequencing, WD [1] [log2] | Modulation (ratio of the level of intensity of expression in log2 in two stages of differentiation) measured with the Agilent chips, D7 − D0 [2] [log2] | Modulation (ratio of the level of intensity of expression in log2 in two stages of differentiation) measured with the Agilent chips, FC − D7 [2] [log2] | Modulation (ratio of the level of intensity of expression in log2 in two stages of differentiation) measured with the Agilent chips, WD − D0 [2] [log2] | Modulation (ratio of the level of intensity of expression in log2 in two stages of differentiation) measured with the Agilent chips, WD − FC [2] [log2] | Level of intensity of expression in log2 measured with the Agilent chips, D0 [2] [log2] | Level of intensity of expression in log2 measured with the Agilent chips, D7 [2] [log2] | Level of intensity of expression in log2 measured with the Agilent chips, FC [2] [log2] | Level of intensity of expression in log2 measured with the Agilent chips, WD [2] [log2] | Modulation of expression of the miRNAs in pyramidal cells (323(−)) relative to basal cells 323(+) [3] | Intensity of the level of expression in log2 in basal cells (323(+)) [3] [log2] | Intensity of the level of expression in log2 in pyramidal cells (323(−)) [3] [log2] | also measured
hsa-miR-193b: human miRNA, SEQ ID No. 14 (AACUGGCCCUCAAAGUCCCGCU; expressed or natural sequence; listed as Homo sapiens) | −1.17 | −0.90 | −1.60 | 0.48 | 11.67 | 13.26 | 12.09 | 11.19 | 11.67 | −0.67 | −1.19 | −1.93 | −0.07 | 8.62 | 7.95 | 6.76 | 6.69 | −3.57 | 3.90 | 0.33 | Modulation (ratio of the level of intensity of expression in log2 in two stages of differentiation), D7 − D0 [1]: −1.17 log2; Modulation (ratio of the level of intensity of expression in log2 in two stages of differentiation), FC − D7 [1]: −0.90 log2; Modulation (ratio of the level of intensity of expression in log2 in two stages of differentiation), WD − FC [1]: 0.48 log2; Abundance (%), D0 [1]: 2.16%; Abundance (%), D7 [1]: 0.96%; Abundance (%), FC [1]: 0.50%; Abundance (%), WD [1]: 0.52%; Modulation (ratio of the level of intensity of expression in log2 at two stages of differentiation), FC − D7 [2]: −1.19 log2; Modulation (ratio of the level of intensity of expression in log2 at two stages of differentiation), WD − FC [2]: −0.07 log2; cell type in which the miRNA is specifically expressed ([3]; sorted ciliated/pyramidal versus basal cells): more specific to the basal cells
hsa-miR-17: human miRNA, SEQ ID No. 11 (CAAAGUGCUUACAGUGCAGGUAG; expressed or natural sequence; listed as Homo sapiens) | −0.17 | −0.87 | −1.24 | −0.20 | 11.61 | 12.85 | 12.68 | 11.81 | 11.61 | 0.31 | −1.14 | −1.22 | −0.39 | 9.03 | 9.34 | 8.19 | 7.81 | −2.60 | 6.64 | 4.04 | Modulation (ratio of the level of intensity of expression in log2 in two stages of differentiation), D7 − D0 [1]: −0.17 log2; Modulation (ratio of the level of intensity of expression in log2 in two stages of differentiation), FC − D7 [1]: −0.87 log2; Modulation (ratio of the level of intensity of expression in log2 in two stages of differentiation), WD − FC [1]: −0.20 log2; Abundance (%), D0 [1]: 1.61%; Abundance (%), D7 [1]: 1.44%; Abundance (%), FC [1]: 0.76%; Abundance (%), WD [1]: 0.50%
hsa-miR-22: human miRNA, SEQ ID No. 23 (AAGCUGCCAGUUGAAGAACUGU; expressed or natural sequence; listed as Homo sapiens) | 0.80 | −1.14 | 0.40 | 0.73 | 11.22 | 8.89 | 9.69 | 8.55 | 9.29 | 1.09 | −0.66 | 0.48 | 0.05 | 10.67 | 11.75 | 11.10 | 11.15 | −1.73 | 8.81 | 7.07 | Modulation (ratio of the level of intensity of expression in log2 at two stages of differentiation), FC − D7 [2]: −0.66 log2; Modulation (ratio of the level of intensity of expression in log2 at two stages of differentiation), WD − FC [2]: 0.05 log2
